Laboratory results as given in patent US20240174596A1 (Northwestern University, priority 2021, published 2024).
Structures can show the parent of a compound that is named as a salt. Where two headings read alike, the source gives them in different places. Marks after values point to notes of the source that are not given here.

What was measured:
hOAT [1] = molecular target: T1, hOAT (Homo sapiens, UniProt P04181); conditions: data extracted from Reference 9; cited from earlier work
T1 construct: made in house; host or cells: E. coli BL21(DE3)
T1 sequence (P04181 26-439): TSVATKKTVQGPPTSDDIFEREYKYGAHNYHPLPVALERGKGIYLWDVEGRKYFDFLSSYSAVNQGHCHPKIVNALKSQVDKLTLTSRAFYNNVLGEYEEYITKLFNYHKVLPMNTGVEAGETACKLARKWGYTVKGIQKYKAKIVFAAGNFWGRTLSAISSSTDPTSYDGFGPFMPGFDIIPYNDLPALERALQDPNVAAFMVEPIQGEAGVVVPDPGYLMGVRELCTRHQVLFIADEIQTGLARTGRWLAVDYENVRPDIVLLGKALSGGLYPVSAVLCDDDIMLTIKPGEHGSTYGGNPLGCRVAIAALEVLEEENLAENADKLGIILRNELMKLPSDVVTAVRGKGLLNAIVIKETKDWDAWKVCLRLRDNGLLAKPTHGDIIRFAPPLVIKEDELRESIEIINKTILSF

[2] = test system: aspartate aminotransferase (Asp-AT); conditions: up to 4 mM; cited from earlier work
HCC mouse model = conditions: 0.1 and 1.0 mg/kg; PO; cited from earlier work
hOAT [3] = molecular target: T1, hOAT; assay: Time-dependent inactivation of hOAT; assay type: biochemical; conditions: for kinact/KI: inactivation efficiency; for KI (inactivator concentration for half-maximal inactivation): inhibitor concentration for half-maximal inactivation; for KI (inactivator concentration for half-maximal inactivation) / kinact: mean and standard error
Description: (§1) All reagents for enzyme purification and assays were purchased from Sigma-Aldrich (St. Louis, MO, USA). Human OAT (0.672 mg/mL) was purified from E. coli BL21 (DE3) cells following the procedure described above, and coenzyme human recombinant pyrroline 5-carboxylate reductase (PYCRI) were expressed, grown, and purified according to a literature procedure.^4 γ-Aminobutyric acid aminotransferase (GABA-AT, 0.4 mg/mL) was purified from pig brain following a procedure described previously^5, and coenzyme succinic semialdehyde dehydrogenase (SSDH) was purified from GABase (catalog No. G7509-25UN, Sigma-Aldrich), a commercially available mixture of SSDH and GABA-AT, using a known procedure.^6 Commercially available L-aspartate aminotransferase (Asp-AT) from the porcine heart (catalog No. G2751-2KU, Sigma-Aldrich) and the desired assay coenzyme malic dehydrogenase from porcine (catalog No. M2634-5KU, Sigma-Aldrich), and L-alanine aminotransferase (Ala-AT) from the porcine heart (catalog No. G8255-200UN, Sigma-Aldrich) and the desired assay coenzyme lactate dehydrogenase from porcine (catalog No. 427211-50KU, Sigma-Aldrich) were used directly without further purification. All the enzyme assays for the inactivation, partition ratio, and dialysis experiment were recorded on a Synergy H1 hybrid multimode microplate reader (Biotek, USA) with transparent 96-well plates.
Time-dependent inactivation against hOAT was performed using an optimized procedure published previously.^7 10 μL of hOAT (0.025 mg/mL) was preincubated with 10 μL of various concentrations of tested compounds in 100 mM potassium pyrophosphate buffer (pH 8.0, 5 mM α-ketoglutarate, and 5 mM β-mercaptoethanol) at 25° C. in a 96-well plate. At time intervals, 80 μL of assay solution containing PYCR^1 (0.5 μg), 1 mM NADH, and 25 mM L-ornithine in the abovementioned potassium pyrophosphate buffer were added to the incubation mixture and assayed for OAT activity at 37° C. for 30 min. The change in UV absorbance at 340 nm at 37° C. based on the conversion of NADH to NAD was monitored by a microplate reader. All assays were performed in duplicate, and the remaining OAT activity at each preincubation time at each inhibitor concentration was averaged. The natural logarithm of the percentage of the remaining OAT activity was plotted against the preincubation time at each inhibitor concentration to obtain the kobs (slope) value for each concentration. The kobs value is the rate constant describing the inactivation at each inhibitor concentration. kobs is replotted against the inhibitor concentration using nonlinear regression analysis using GraphPad Prism 8.0. K1 and kinact values were estimated from equation (1)
where kinact is the maximal rate of inactivation, K1 is the inhibitor concentration required for half-maximal inactivation, and [I] is the preincubation concentration of the tested compound.

hOAT [4] = molecular target: T1, hOAT; conditions: data extracted from Reference 9; cited from earlier work; remark: listed apart in the source
[5] = test system: alanine aminotransferase (Ala-AT); conditions: up to 4 mM; cited from earlier work
GABA-AT [6] = molecular target: T2, GABA-AT (Sus scrofa, UniProt P80147); assay: Reversible inhibition of GABA-AT (coupled assay with SSDH); assay type: biochemical, pig; parameters: was purified from pig brain following a procedure described previously; from tissue; host or cells: pig brain; conditions: for Ki: Ki = IC50/(1 + [S]/Km), 9-point assay
Description: as §1
96-well plates were loaded with 80 μL of an assay mixture containing excess SSDH, 1 mM NADP^+, 11.1 mM GABA, and 10 μL of various concentrations of the tested compounds in 50 mM potassium pyrophosphate buffer (pH 8.5, 5 mM α-ketoglutarate, and 5 mM β-mercaptoethanol). […] The microplate was shaken at 25° C. for 1 min, and the remaining enzyme activity was determined by observing the change in absorbance at 340 nm at 25° C. based on the conversion of NADP^+ to NADPH. […] Subsequent Ki values were determined using equation (2) All assays were performed in duplicate.

hOAT [7] = molecular target: T1, hOAT; assay: Fluoride ion release assay; assay type: biochemical; conditions: without α-KG; triplicate, mean with standard deviation
Description: The fluoride ion release assay was conducted using previous protocols.^10 The final concentration of enzyme in the sample was determined via BCA protein assay kit (Pierce, cat: 23225). A calibration curve of voltage (V, mV) was generated from varying concentrations of NaF (F, μM). For accurate detection of fluoride ion concentration, 10 μM of fluoride ion was added to each control and sample The number of fluoride ions released per active site was calculated by the ratio of the fluoride ion release concentration and enzyme concentration.

hOAT [8] = molecular target: T1, hOAT; assay: Partition ratio experiment (titration of hOAT); assay type: biochemical; conditions: in the presence of α-KG
Description: FIG. 9. Titration of hOAT with SS-1-148. The loss of enzyme activity was measured as a function of the ratio of […] to enzyme concentration. Linear regression was used on the linear portion of the curves to obtain the X-intercept, which was the turnover number (partition ratio=turnover number−1).
The partition ratio was calculated using previous protocols.^8-10

hOAT [9] = molecular target: T1, hOAT; conditions: literature; cited from earlier work
GABA-AT [10] = molecular target: T2, GABA-AT; conditions: literature, cited from earlier work

T2 sequence (P80147 29-500): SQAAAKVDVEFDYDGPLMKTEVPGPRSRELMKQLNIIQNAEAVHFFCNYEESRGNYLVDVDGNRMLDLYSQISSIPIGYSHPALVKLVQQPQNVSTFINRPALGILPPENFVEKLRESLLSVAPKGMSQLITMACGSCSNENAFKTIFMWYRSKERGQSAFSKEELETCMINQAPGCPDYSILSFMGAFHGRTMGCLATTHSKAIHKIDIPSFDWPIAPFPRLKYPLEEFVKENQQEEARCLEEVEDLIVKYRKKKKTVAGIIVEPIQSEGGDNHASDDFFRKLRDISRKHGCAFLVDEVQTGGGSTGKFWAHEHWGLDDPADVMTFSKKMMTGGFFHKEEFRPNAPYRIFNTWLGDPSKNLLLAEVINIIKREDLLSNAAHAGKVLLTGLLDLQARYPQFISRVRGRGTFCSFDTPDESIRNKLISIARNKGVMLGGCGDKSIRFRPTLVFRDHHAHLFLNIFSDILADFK

For `N[C@H]1C[C@@H](C(=O)O)CC1=C(C(F)(F)F)C(F)(F)F` [BCF3, (1S,3S)-3-Amino-4-(hexafluoropropan-2-ylidenyl)-cyclopentane-1-carboxylic Acid], which Partition ratio (hOAT [1]) is on record?
The Partition ratio was 12^b.

What about the “inhibition on aspartate aminotransferase (Asp-AT)” value [2] of the same molecule?
Its value is “no inhibition”.

And the “serum AFP levels” value (HCC mouse model)?
The value was “remarkably decreased”.

And the tumor growth (HCC mouse model)?
Its tumor growth is “inhibited tumor growth”.

And the kinact/KI (hOAT [3])?
The kinact/KI was 16.7 M⁻¹ s⁻¹.

And the KI (inactivator concentration for half-maximal inactivation) (hOAT [3])?
Its KI (inactivator concentration for half-maximal inactivation) is 90 ± 30 µM.

And the kinact (hOAT [3])?
The kinact was 0.0015 s⁻¹.

And the Fluoride ion release (hOAT [4])?
Its Fluoride ion release is 79^b.

What about the “inhibition on alanine aminotransferase (Ala-AT)” value [5] of the same molecule?
Its value is “no inhibition”.

What about the Ki (GABA-AT [6]) of the same molecule?
The Ki was 5160 µM.

With `N[C@H]1C[C@@H](C(=O)O)CC1(F)F` [Compound 4, (1R,4S)-4-Amino-3,3-difluorocyclopentanecarboxylic acid hydrochloric acid salt, reference compound] as the molecule, how does the Fluoride ion release (hOAT [7]) read?
Its Fluoride ion release is 3395± 31.

With `N[C@H]1CC(C(=O)O)=CC1(F)F` [Compound 5, (S)-4-Amino-3,3-difluorocyclopent-1-enecarboxylic acid] as the molecule, how does the kinact/KI (hOAT [3]) read?
Its kinact/KI is 0.233 M⁻¹ s⁻¹.

What about the KI (inactivator concentration for half-maximal inactivation) (hOAT [3]) of the same molecule?
The KI (inactivator concentration for half-maximal inactivation) was 2130 ± 900 µM.

What about the kinact (hOAT [3]) of the same molecule?
Its kinact is 0.0005 s⁻¹.

And the Fluoride ion release (hOAT [7])?
Its Fluoride ion release is 754 ± 57.

What about the “inhibitory activity against GABA-AT weaker than cyclopentane-based 4” value (GABA-AT [6]) of the same molecule?
The value was “about 10 times”.

What about the Ki (GABA-AT [6]) of the same molecule?
Its Ki is 1340 µM.

What about the Partition ratio (hOAT [8]) of the same molecule?
The Partition ratio was 817.

Which “improvement in inactivation efficiency (kinact/K1 ratio) against hOAT compared to BCF3” value (hOAT [9]) does the source give for `N[C@H]1C=C(C(=O)O)CCC1(F)F` [WZ-2-051, (S)-3-amino-4,4-difluorocyclohex-1-enecarboxylic acid] here?
The value was 23 fold.

What about the “selectivity over GABA-AT” value (GABA-AT [10]; hOAT over GABA-AT) of the same molecule?
Its value is 13.3 fold.

And the “type of inhibition on GABA-AT” value (GABA-AT [10])?
Its value is “apparent irresponsible inhibition”.
